Laboratory results as given in PMC4754833, “Rilpivirine analogs potently inhibit drug-resistant HIV-1 mutants” (Retrovirology, 2016).

What was measured:
HIV-1 RT mutant E138K = assay: single round infection assay, E138K; type: cell-based; conditions: for fold-change of IC50 of the mutant relative to WT: E138K vs WT; for IC50: ± SD, n=4
Description: (§1) The human osteosarcoma cell line, HOS, was obtained from Dr. Richard Schwartz (Michigan State University, East Lansing, MI) and grown in Dulbecco’s modified Eagle’s medium (Invitrogen, Carlsbad, CA) supplemented with 5 % (v/v) fetal bovine serum, 5 % newborn calf serum, and penicillin (50 units/ml) plus streptomycin (50 µg/ml; Quality Biological, Gaithersburg, MD). Virion production and single-round infectivity assays were used to determine antiviral activity (IC50 values) of the compounds as previously described.
(§2) pNLNgoMIVR-ΔEnv.LUC has been described previously. The RT open reading frame was removed from pNLNgoMIVR-ΔEnv.LUC (digestion with SpeI and SalI) and inserted between the SpeI and SalI sites of pBluescript II KS+. Using that construct as the wild-type template, we prepared the following HIV-1 RT mutants using the QuikChange II XL (Stratagene, La Jolla, CA) site-directed mutagenesis protocol kit: L100I, K103N, Y181C, Y188L, H221Y, K103N/Y181C, G190A, G190S, M230L, P236L, L100I/K103N, K103N/P225H, V106A/G190A/F227L, V106A, L234I, V106A/F227L, V106A/L234I, V106A/F227L/L234I, E40K, D67E, K101E, V111A, E138K, M184I, M184V, K101E/M184I, K101E/M184V, E138K/M184I, E138K/M184V, K101P, Y181I, and K101P/V179I. The following sense oligonucleotides were used with matching cognate antisense oligonucleotides (not shown) (Integrated DNA Technologies, Coralville, IA) in the mutagenesis: L100I, 5′-[…]-3′; L100I 2-103, 5′-[…]-3′; K103N, 5′-[…]-3′; Y181C, 5′-[…]-3′; Y188L, 5′-[…]-3′; H221Y, 5′-[…]-3′; G190A, 5′-[…]-3′; G190S, 5′-[…]-3′; P225H, 5′-[…]-3′; F227, 5′-[…]-3′; M230L, 5′-[…]-3′; P236L, 5′-[…]-3′; V106A, 5′-[…]-3′; L234I, 5′-[…]-3′; E40K, 5′-[…]-3′; D67E, 5′-[…]-3′; K101E, 5′-[…]-3′; V111A, 5′-[…]-3′; E138K, 5′-[…]-3′; M184I, 5′-[…]-3′; M184V, 5′-[…]-3′; K101P, 5′-[…]-3′; Y181I, 5′-[…]-3′; K101P/V179I, 5′-[…]-3′. The double mutants K103N/Y181C, K103N/P225H, and L100I/K103N were made using the previously generated K103N mutant and the appropriate oligonucleotides to add the second mutation, Y181C, P225, and L100I respectively. The double mutants V106A/F227L and V106A/L234I were prepared using the previously generated V106A mutant and the appropriate oligonucleotides to add the second mutation, F227L and L234I, respectively. The double mutants K101E/M184I and K101E/M184V were constructed using the previously generated K101E mutant and the appropriate oligonucleotides to add the second mutation, M184I and M184V, respectively. The double mutants E138K/M184I and E138K/M184V were constructed using the previously generated E138K mutant and the appropriate oligonucleotides for the second mutation, M184I and M184V, respectively. The triple mutant V106A/F227L/L234I was made using the previously generated V106A/F227L double mutant and the appropriate oligonucleotides for the third mutation, L234I. The triple mutant V106A/G190A/F227L was constructed in a series of steps using the previously generated V106A mutant and the appropriate oligonucleotides for the second mutation, G190A, to generate the double mutant V106A/G190A, and then the triple mutant was made using double mutant V106A/G190A and oligonucleotides for the third mutation, F227L. The DNA sequence of each construct was verified by DNA sequence determination. The sequences encoding the mutant RTs were then subcloned into pNLNgoMIVR-ΔEnv.LUC (between the KpnI and SalI sites) to produce the mutant HIV-1 constructs. These DNA sequences were also checked independently by DNA sequence determination.
(§3) 10.1186/s12977-016-0244-2 The IC50 values (nM) of RPV and the RPV analogs were determined against the NNRTI resistant mutants were measured by using a single round infection assay, n = 4. The concentrations (nM) are measured by reductions in luciferase reporter activity followed by the standard deviations. […]

HIV-1 RT mutant G190A = assay: single round infection assay, G190A; type: cell-based; conditions: for fold-change of IC50 of the mutant relative to WT: G190A vs WT; for IC50: Human immunodeficiency virus 1
Description: as §1, §2, §3

[1] = tested on: HIV-1 RT mutant E138K/M184V; assay: single round infection assay, E138K/M184V; type: cell-based; conditions: for fold-change of IC50 of the mutant relative to WT: E138K/M184V vs WT; for IC50: ± SD, n=4
Description: as §1, §2, §3

HIV-1 RT mutant V106A = assay: single round infection assay, V106A; type: cell-based; conditions: V106A vs WT
Description: as §1, §2, §3

[2] = tested on: HIV-1 RT mutant K103N/P225H; assay: single round infection assay, K103N/P225H; type: cell-based; conditions: for IC50: Human immunodeficiency virus 1; for fold-change of IC50 of the mutant relative to WT: K103N/P225H vs WT
Description: as §1, §2, §3

WT HIV-1 = conditions: previous study; cited from earlier work
[3] = tested on: HIV-1 RT mutant L100I/K103N; assay: single round infection assay, L100I/K103N; type: cell-based; conditions: for fold-change of IC50 of the mutant relative to WT: L100I/K103N vs WT; for IC50: Human immunodeficiency virus 1, L100I/K103N, ± SD, n=4, limit of detection 100 nM
Description: as §1, §2, §3

HIV-1 RT mutant Y181C = tested on: HIV-1 RT mutant Y181C; parameters: method as in PMID 23217210; conditions: previous study; cited from earlier work
HIV-1 RT mutant E40K = assay: single round infection assay, E40K; type: cell-based; conditions: E40K vs WT
Description: as §1, §2, §3

HIV-1 RT mutant G190S = assay: single round infection assay, G190S; type: cell-based; conditions: Human immunodeficiency virus 1
Description: as §1, §2, §3

HIV-1 RT mutant K101E = assay: single round infection assay, K101E; type: cell-based; conditions: for IC50: ± SD, n=4; for fold-change of IC50 of the mutant relative to WT: K101E vs WT
Description: as §1, §2, §3

[4] = tested on: HIV-1 RT mutant K101E/M184V; assay: single round infection assay, K101E/M184V; type: cell-based; conditions: for IC50: ± SD, n=4; for fold-change of IC50 of the mutant relative to WT: K101E/M184V vs WT
Description: as §1, §2, §3

[5] = tested on: HIV-1 RT mutant V106A/F227L/L234I; assay: single round infection assay, V106A/F227L/L234I; type: cell-based; conditions: V106A/F227L/L234I vs WT
Description: as §1, §2, §3

[6] = Human immunodeficiency virus 1, E138K/M184V
[7] = Human immunodeficiency virus 1, K101E
[8] = Human immunodeficiency virus 1, E138K

Row | SMILES | fold-change of IC50 of the mutant relative to WT (HIV-1 RT mutant E138K) | fold-change of IC50 of the mutant relative to WT (HIV-1 RT mutant G190A) | IC50 (HIV-1 RT mutant G190A) | fold-change of IC50 of the mutant relative to WT [1] | IC50 ([1]; E138K/M184V) | IC50 [1, 6] | fold-change of IC50 of the mutant relative to WT (HIV-1 RT mutant V106A) | IC50 [2] | fold-change of IC50 of the mutant relative to WT [2] | IC50 (WT HIV-1) | fold-change of IC50 of the mutant relative to WT [3] | IC50 (HIV-1 RT mutant Y181C) | IC50 (HIV-1 RT mutant G190S) | IC50 (HIV-1 RT mutant K101E; [7]) | fold-change of IC50 of the mutant relative to WT (HIV-1 RT mutant K101E) | IC50 (HIV-1 RT mutant K101E; K101E) | IC50 (HIV-1 RT mutant E138K; E138K) | IC50 (HIV-1 RT mutant E138K; [8]) | fold-change of IC50 of the mutant relative to WT [4] | IC50 [3] | further results
1 | Cc1cc(/C=C/C#N)cc(C)c1Nc1ccnc(Nc2ccc(C#N)cc2)n1 [RPV, rilpivirine] | 4 | < 2 | 0.4 ± 0.08 nM | 5 | 1.3 ± 0.4 nM | < 2.5 nM | < 2 | 0.6 ± 0.2 nM | 3 | < 7 nM | 10 | < 7 nM | 0.11 ± 0.01 nM | < 2.5 nM | 11 | 2.6 ± 1.6 nM |  |  |  |  | fold-change of IC50 of the mutant relative to WT (HIV-1 RT mutant E40K): < 2
2 | Cc1cc(/C=C/C#N)cc(C)c1Nc1nc(Nc2ccc(C(F)(F)F)cc2)c2nc[nH]c2n1 [compound 15] | 4 |  | 0.77 ± 0.19 nM | < 2 | 3.1 ± 0.4 nM | < 6 nM | < 2 | 1.5 ± 0.31 nM |  | < 7 nM | 9 | < 7 nM | 0.35 ± 0.05 nM | < 6 nM | 4 | 6.2 ± 1.2 nM | 6.3 ± 1.3 nM | < 6 nM | 2 | 15.5 nM | IC50 ([4]; Human immunodeficiency virus 1, K101E/M184V): < 6 nM; IC50 ([4]; K101E/M184V): 3.8 ± 0.42 nM
3 | Cc1cc(/C=C/C#N)cc(C)c1-n1cnc2cnc(Nc3ccc(C#N)cc3)nc21 [compound 27] | 2 |  | 0.2 ± 0.1 nM | 3 | 1.8 ± 0.8 nM | < 2.5 nM |  | 2.1 ± 0.93 nM | 4 | < 7 nM | 69 | < 7 nM | 0.1 ± 0.01 nM |  | 2 |  | 1.3 ± 0.14 nM | < 2.5 nM | < 2 | 39.8 nM | fold-change of IC50 of the mutant relative to WT [5]: < 2
4 | Cc1cc(/C=C/C#N)cc(C)c1Nc1nc(Nc2ccc(C#N)cc2)c2nc[nH]c2n1 [compound 13] | 5 | < 2 | 0.3 ± 0.04 nM | 4 |  |  |  | 0.3 ± 0.09 nM | < 2 | < 7 nM | 2 | < 7 nM | 0.12 nM |  | 4 |  |  |  | 2 |  | 
